Test results from patent US12600725B2 (Memorial Sloan-Kettering Cancer Center, priority 2013, dated 2026).
Entries after “also recorded” stand apart in the source; their conditions may differ.

Experiments:
[1] = tested on: HEK293 cells; test: Toxicity to HEK293 cells; format: cell-based, human
[2] = tested on: CFPAC cells; test: Cell viability assessment (CellTiter-Glo); format: cell-based
[3] = tested on: TLR9 ligand CpG DNA induced TNF-α production in RAW 264.7 macrophages; test: TNFα ELISA, CpG DNA stimulated macrophages; format: cell-based, mouse
[4] = tested on: EGFR and its downstream signaling in HMEC cells; test: Western blot of EGFR and downstream signaling in normal cells; format: cell-based, human; conditions: 24 h
Procedure: For comparison, the agent was also tested in a normal cell line, human mammary epithelial cells (HMECs). […] Without wishing to be bound by any particular theory, it is believed that a Grp94 selective inhibitor may therefore have a better therapeutic index than a direct RTK modulator (i.e. TKI or antibody) because it will act on the RTK only in conditions of oncogenic overexpression (see EGFR in TNBC cell lines vs HMEC). […] Approximately half of cases of triple-negative breast cancer (TNBC) and inflammatory breast cancer (IBC) overexpress EGFR, nonetheless clinical trials testing EGFR inhibitors reported lack of or limited benefit (Masuda H. et al. Breast Cancer Res Treat. 2012 November; 136(2):331-45). Without wishing to be bound by any particular theory, it is believed that such ineffectiveness is due to a crosstalk between EGFR and c-Met or other RTKs, because strategies that knocked down EGFR either by siRNA or by mixtures of antibodies that induces robust degradation of EGFR, led to reduced viability of TNBC cells (Mueller et al., Breast Cancer Res. 2012 Jul. 12; 14(4):R^104; Ferraro et al., Proc Natl Acad Sci USA. 2013 Jan. 29; 110(5):1815-20. PMID:23319610). […] Protein concentrations were determined using BCA kit (Pierce) according to the manufacturer's instructions. […]

[5] = tested on: Hsp70 induction and AKT degradation (cytosolic Hsp90 hallmarks) in C2C12 cells; test: Western blot of Hsp70 induction and AKT degradation in C2C12 cells; format: cell-based, mouse; conditions: 24 hrs
Procedure: Cell fractionation and immunoblotting. Cells were either treated with DMSO (vehicle) or indicated compounds for 24 hr and lysed in RIPA buffer (50 mM Tris-HCl, pH 7.4, 150 mM NaCl, 0.5% sodium deoxycholate and 0.5% NP40) supplemented with cocktail protease inhibitors (Roche) to produce whole cell lysates. Lysates for cytosol and membrane fractions were harvested using ProteoExtract Subcellular Proteome Extraction Kit (Calbiochem) following the manufacturer's instructions. Protein concentrations were determined using BCA kit (Pierce) according to the manufacturer's instructions. […] After washing off the excess antibodies, the membranes were incubated with the corresponding horseradish peroxidase (HRP) conjugated secondary antibody. Blots were visualized by autoradiography using the Enhanced Chemiluminescence Detection System (GE Healthcare) according to manufacturer's instructions. For all gels 3-actin was used as a protein loading control.

[6] = tested on: MKN74 cells; test: Cell viability assessment (CellTiter-Glo); format: cell-based

Q: Which results are given for `CC(C)NCCCn1c(Sc2cc(Cl)cc(Cl)c2)nc2c(N)ncnc21` [PU-WS13]?
A: toxicity to HEK293 cells [1]: not toxic; effect on cell growth [2]: modest effect; CpG DNA induced TNF-α production [3]: inhibited this response in a concentration dependent manner; also recorded: inhibit; effect on EGFR and its downstream signaling in normal cells [4]: does not affect EGFR and its downstream signaling; AKT degradation [5]: lack of Hsp70 induction and AKT degradation; also recorded: has no effect; Hsp70 induction [5]: lack of Hsp70 induction; also recorded: has no effect; sensitivity to Grp94 inhibition [6]: not sensitive
